Assay results taken from patent EP0089538A1, “Optically active derivatives of phenoxy-benzoic acid, process for their preparation and their use as herbicides” (BAYER AG, priority 1982, dated 1983).

Assays:
Type in all cases: in vivo
Dicotyledoneae [1] = test: Pre-emergence test; settings: average effect on several dicots, % damage vs untreated control after three weeks
From the text: (§1) Pre-emergence-Test Lösungsmittel: 5 Gewichtsteile Aceton Emulgator: 1 Gewichtsteil Alkylarylpolyglycolether
(§2) Zur Herstellung einer zweckmäßigen Wirkstoffzubereitung vermischt man 1 Gewichtsteil Wirkstoff mit der angegebenen Menge Lösungsmittel, gibt die angegebene Menge Emulgator zu und verdünnt das Konzentrat mit Wasser auf die gewünschte Konzentration.
(§3) Samen der Testpflanzen werden in normalen Boden ausgesät und nach 24 Stunden mit der Wirkstoffzubereitung begossen. Dabei hält man die Wassermenge pro Flächeneinheit zweckmäßigerweise konstant. Die Wirkstoffkonzentration in der Zubereitung spielt keine Rolle, entscheidend ist nur die Aufwandmenge des Wirkstoffs pro Flächeneinheit. Nach drei Wochen wird der Schädigungsgrad der Pflanzen bonitiert in % Schädigung im Vergleich zur Entwicklung der unbehandelten Kontrolle. Es bedeuten: • 0 % = keine Wirkung (wie unbehandelte Kontrolle) 100 % = totale Vernichtung

Mais [2] = test: Pre-emergence test; settings: % damage vs untreated control after three weeks
From the text: as §1, §2, §3

Monocotyledoneae [3] = test: Pre-emergence test; settings: average effect on several monocots, % damage vs untreated control after three weeks
From the text: as §1, §2, §3

Rüben [4] = test: Pre-emergence test; settings: % damage vs untreated control after three weeks
From the text: as §1, §2, §3

Soja [5] = test: Pre-emergence test; settings: % damage vs untreated control after three weeks
From the text: as §1, §2, §3

Dicotyledoneae [6] = test: Post-emergence test; settings: average effect on several dicots, % damage vs untreated control after three weeks
From the text: (§4) Post-emergence-Test Lösungsmittel: 5 Gewichtsteile Aceton Emulgator : 1 Gewichtsteil Alkylarylpolyglycolether
as §2
(§5) Mit der Wirkstoffzubereitung spritzt man Testpflanzen, welche eine Höhe von 5 - 15 cm haben so, daß die jeweils gewünschten Wirkstoffmengen pro Flächeneinheit ausgebracht werden. Die Konzentration der Spritzbrühe wird so gewählt, daß in 2000 1 Wasser/ha die jeweils gewünschten Wirkstoffmengen ausgebracht werden. Nach drei Wochen wird der Schädigungsgrad der Pflanzen bonitiert in % Schädigung im Vergleich zur Entwicklung der unbehandelten Kontrolle. Es bedeuten: • 0 % = keine Wirkung (wie unbehandelte Kontrolle) 100 % = totale Vernichtung

Mais [7] = test: Post-emergence test; settings: % damage vs untreated control after three weeks
From the text: as §4, §2, §5

Monocotyledoneae [8] = test: Post-emergence test; settings: average effect on several monocots, % damage vs untreated control after three weeks
From the text: as §4, §2, §5

Rüben [9] = test: Post-emergence test; settings: % damage vs untreated control after three weeks
From the text: as §4, §2, §5

Soja [10] = test: Post-emergence test; settings: % damage vs untreated control after three weeks
From the text: as §4, §2, §5

Testpflanzen [11] = test: Pre-emergence test, overall comparison with racemates; settings: compared with the corresponding racemic compounds (A) and (B)
From the text: as §1, §2, §3

Testpflanzen [12] = test: Post-emergence test, overall comparison with racemates; settings: compared with the corresponding racemic compounds (A) and (B)
From the text: as §4, §2, §5

Structure (SMILES): CCOC(=O)C(C)OC(=O)c1cc(Oc2c(Cl)cc(C(F)(F)F)cc2Cl)ccc1[N+](=O)[O-] (racemic) [(A), 5-(2,6-Dichlor-4-trifluormethyl-phenoxy)-2-nitro-benzoesäure-(1-ethoxycarbonyl-ethyl)-ester, reference compound]
- Wirkung (in %) Dicotyledoneae (Dicotyledoneae [1]; 1 kg/ha): 95,6%
- Wirkung (in %) Mais (Mais [2]; 1 kg/ha): 10%
- Wirkung (in %) Monocotyledoneae (Monocotyledoneae [3]; 1 kg/ha): 69,3%
- Wirkung (in %) Rüben (Rüben [4]; 1 kg/ha): 100%
- Wirkung (in %) Soja (Soja [5]; 1 kg/ha): 40%
- Wirkung (in %) Dicotyledoneae (Dicotyledoneae [6]; 1 kg/ha): 100%
- Wirkung (in %) Mais (Mais [7]; 1 kg/ha): 95%
- Wirkung (in %) Monocotyledoneae (Monocotyledoneae [8]; 1 kg/ha): 92%
- Wirkung (in %) Rüben (Rüben [9]; 1 kg/ha): 100%
- Wirkung (in %) Soja (Soja [10]; 1 kg/ha): 100%

Structure (SMILES): CCOC(=O)[C@H](C)OC(=O)c1cc(Oc2ccc(C(F)(F)F)cc2Cl)ccc1[N+](=O)[O-] [(2), 5-(2-Chlor-4-trifluormethyl-phenoxy)-2-nitro-benzoesäure-(1-ethoxycarbonyl-ethyl)-ester]
- Wirkung (in %) Dicotyledoneae (Dicotyledoneae [1]; 0,51 kg/ha): 77,1%
- Wirkung (in %) Mais (Mais [2]; 0,51 kg/ha): 0%
- Wirkung (in %) Monocotyledoneae (Monocotyledoneae [3]; 0,51 kg/ha): 74,1%
- Wirkung (in %) Rüben (Rüben [4]; 0,51 kg/ha): 99%
- Wirkung (in %) Soja (Soja [5]; 0,51 kg/ha): 0%
- Wirkung (in %) Dicotyledoneae (Dicotyledoneae [6]; 0,51 kg/ha): 99,9%
- Wirkung (in %) Mais (Mais [7]; 0,51 kg/ha): 100%
- Wirkung (in %) Monocotyledoneae (Monocotyledoneae [8]; 0,51 kg/ha): 83,3%
- Wirkung (in %) Rüben (Rüben [9]; 0,51 kg/ha): 100%
- Wirkung (in %) Soja (Soja [10]; 0,51 kg/ha): 99%
- herbizide Wirksamkeit (Testpflanzen [11]): bessere herbizide Wirksamkeit
- herbizide Wirksamkeit (Testpflanzen [12]): bessere herbizide Wirksamkeit

Structure (SMILES): CCOC(=O)C(C)OC(=O)c1cc(Oc2ccc(C(F)(F)F)cc2Cl)ccc1[N+](=O)[O-] (racemic) [(B), 5-(2-Chlor-4-trifluormethyl-phenoxy)-2-nitro-benzoesäure-(1-ethoxycarbonylethyl)-ester, reference compound]
- Wirkung (in %) Dicotyledoneae (Dicotyledoneae [1]; 1 kg/ha): 81,4%
- Wirkung (in %) Mais (Mais [2]; 1 kg/ha): 0%
- Wirkung (in %) Monocotyledoneae (Monocotyledoneae [3]; 1 kg/ha): 61,4%
- Wirkung (in %) Rüben (Rüben [4]; 1 kg/ha): 100%
- Wirkung (in %) Soja (Soja [5]; 1 kg/ha): 0%
- Wirkung (in %) Dicotyledoneae (Dicotyledoneae [6]; 1 kg/ha): 99,9%
- Wirkung (in %) Mais (Mais [7]; 1 kg/ha): 95%
- Wirkung (in %) Monocotyledoneae (Monocotyledoneae [8]; 1 kg/ha): 89,1%
- Wirkung (in %) Rüben (Rüben [9]; 1 kg/ha): 100%
- Wirkung (in %) Soja (Soja [10]; 1 kg/ha): 99%

Structure (SMILES): CCOC(=O)[C@H](C)OC(=O)c1cc(Oc2c(Cl)cc(C(F)(F)F)cc2Cl)ccc1[N+](=O)[O-] [(1), 5-(2,6-Dichlor-4-trifluor-methyl-phenoxy)-2-nitrobenzoesäure-(1-ethoxycarbonyl-ethyl)-ester]
- Wirkung (in %) Dicotyledoneae (Dicotyledoneae [1]; 0,45 kg/ha): 88,6%
- Wirkung (in %) Mais (Mais [2]; 0,45 kg/ha): 0%
- Wirkung (in %) Monocotyledoneae (Monocotyledoneae [3]; 0,45 kg/ha): 42,1%
- Wirkung (in %) Rüben (Rüben [4]; 0,45 kg/ha): 99%
- Wirkung (in %) Soja (Soja [5]; 0,45 kg/ha): 10%
- Wirkung (in %) Dicotyledoneae (Dicotyledoneae [6]; 0,45 kg/ha): 99,9%
- Wirkung (in %) Mais (Mais [7]; 0,45 kg/ha): 95%
- Wirkung (in %) Monocotyledoneae (Monocotyledoneae [8]; 0,45 kg/ha): 89,9%
- Wirkung (in %) Rüben (Rüben [9]; 0,45 kg/ha): 100%
- Wirkung (in %) Soja (Soja [10]; 0,45 kg/ha): 100%
- herbizide Wirksamkeit (Testpflanzen [11]): bessere herbizide Wirksamkeit
- herbizide Wirksamkeit (Testpflanzen [12]): bessere herbizide Wirksamkeit
